These results are taken from patent publication US11014904B2, “1,2,4-triazine-3-amine derivative, preparation method therefor, and use thereof in medicine” (Jiangsu Hengrui Medicine Co., Ltd., priority 2017, dated 2021).

Holding throughout (assay type): cell-based
In assay [1] the target is T1, adenosine A3 receptor (A3R) (Homo sapiens, UniProt P0DMS8).
T1 construct: expressed in transfected cells; host or cells: CHO-K1
T1 sequence (P0DMS8 1-318): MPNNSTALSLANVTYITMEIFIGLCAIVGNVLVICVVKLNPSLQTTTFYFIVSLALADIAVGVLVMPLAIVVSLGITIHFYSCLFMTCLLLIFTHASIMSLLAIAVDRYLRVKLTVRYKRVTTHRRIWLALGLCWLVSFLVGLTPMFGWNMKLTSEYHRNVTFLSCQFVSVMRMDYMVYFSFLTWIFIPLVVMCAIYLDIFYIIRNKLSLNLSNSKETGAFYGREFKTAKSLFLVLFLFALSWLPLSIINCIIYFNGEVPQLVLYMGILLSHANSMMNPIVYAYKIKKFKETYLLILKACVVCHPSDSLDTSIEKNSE
The assay is described as follows: Inhibition of the adenosine A3 receptor cAMP signaling pathway in CHO-K1/A3R cells (HTRF). Particulars: for IC50: CHO-K1/A3R cells, cAMP, forskolin 10 μM, 2Cl-IB-MECA 5 nM; for IC50 ratio (A3R/A2aR): selectivity A3R over A2aR. The text has this:
(§1) Determination of the inhibition activity of the compounds of the present invention on the adenosine A2a receptor (A2aR) cAMP signaling pathway, the adenosine A2b receptor (A2bR) cAMP signaling pathway, the adenosine A1 receptor (A1R) cAMP signaling pathway and the adenosine A3 receptor (A3R) cAMP signaling pathway.
(§2) The inhibition activity of the compounds of the present invention on the adenosine A2a receptor (A2aR) cAMP signaling pathway, the adenosine A2b receptor cAMP signaling pathway, the adenosine A1 receptor cAMP signaling pathway and the adenosine A3 receptor cAMP signaling pathway was determined by the following method. The experimental method is briefly described as follows:
2.4 Adenosine A3 Receptor
CHO-K1/A3R cells were cultured in DMEM/F12 medium containing 10% fetal bovine serum and 10 μg/ml puromycin. The cells were digested with the cell separation buffer during the experiment. The cells were resuspended in the balanced salt buffer containing 20 mM HEPES and 0.1% bovine serum albumin and counted, and the cell density was adjusted to 5×10^5 cells/ml. In the 384-well plate, each well was added with 12.5 μl of cell suspension, and 6.25 μl of test compound (4× concentration) formulated with the balanced salt buffer containing 20 mM HEPES, 0.1% bovine serum albumin, 54 μM rolipram and 2.7 U/ml adenosine deaminase, and the plate was incubated at room temperature for 30 minutes. Each well was then added with 6.25 μl of forskolin and 2Cl-IB-MECA (4× concentration) formulated with the balanced salt buffer containing 20 mM HEPES, 0.1% bovine serum albumin, 54 μM rolipram and 2.7 U/ml adenosine deaminase, and the plate was incubated at room temperature for 30 minutes. The final concentrations of the compounds were: 100000, 10000, 1000, 100, 10, 1, 0.1 and 0 nM. The final concentrations of forskolin was 10 μM. The final concentration of 2Cl-IB-MECA was 5 nM. Intracellular cAMP concentration was detected with the cAMP dynamic 2 kit. cAMP-d2 and Anti-cAMP-Eu-Cryptate were diluted respectively with the cAMP lysis buffer at a ratio of 1:4. Each well was added with 12.5 μl of diluted cAMP-d2, followed by addition of 12.5 μl of diluted Anti-cAMP-Eu-Cryptate, and the plate was incubated at room temperature in the dark for 1 hour. The HTRF signal values were read by the PHERAstar multi-function microplate reader.

In assay [2] the target is T2, adenosine A1 receptor (A1R) (Homo sapiens, UniProt P30542).
T2 construct: expressed in transfected cells; host or cells: CHO-K1
T2 sequence (P30542 1-326): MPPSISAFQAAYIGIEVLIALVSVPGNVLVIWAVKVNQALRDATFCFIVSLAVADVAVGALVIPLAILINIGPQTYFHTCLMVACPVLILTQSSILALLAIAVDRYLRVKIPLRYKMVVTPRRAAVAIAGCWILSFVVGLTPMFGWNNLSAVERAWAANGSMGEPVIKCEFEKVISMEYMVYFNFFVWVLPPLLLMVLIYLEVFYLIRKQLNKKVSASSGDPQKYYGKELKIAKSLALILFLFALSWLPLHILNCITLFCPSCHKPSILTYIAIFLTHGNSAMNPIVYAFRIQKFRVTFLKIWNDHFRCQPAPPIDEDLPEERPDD
The assay is described as follows: Inhibition of the adenosine A1 receptor cAMP signaling pathway in CHO-K1/A1R cells (HTRF). Conditions: for IC50: CHO-K1/A1R cells, cAMP, forskolin 10 μM, CPA 10 nM; for IC50 ratio (A1R/A2aR): selectivity A1R over A2aR.
Text: as §1, §2
2.3 Adenosine A1 Receptor
CHO-K1/A1R cells were cultured in DMEM/F12 medium containing 10% fetal bovine serum and 1 mg/ml G418. The cells were digested with the cell separation buffer during the experiment. The cells were then resuspended in the balanced salt buffer containing 20 mM HEPES and 0.1% bovine serum albumin and counted, and the cell density was adjusted to 5×10^5 cells/ml. In the 384-well plate, each well was added with 12.5 μl of cell suspension, and 6.25 μl of test compound (4× concentration) formulated with the balanced salt buffer containing 20 mM HEPES, 0.1% bovine serum albumin, 54 μM rolipram and 2.7 U/ml adenosine deaminase, and the plate was incubated at room temperature for 30 minutes. Each well was then added with 6.25 μl of forskolin and N6-cyclopentyladenosine (4× concentration) formulated with the balanced salt buffer containing 20 mM HEPES, 0.1% bovine serum albumin, 54 μM rolipram and 2.7 U/ml adenosine deaminase, and the plate was incubated at room temperature for 30 minutes. The final concentrations of the compounds were: 100000, 10000, 1000, 100, 10, 1, 0.1 and 0 nM. The final concentrations of forskolin was 10 μM. The final concentrations of CPA was 10 nM. Intracellular cAMP concentration was detected with the cAMP dynamic 2 kit. cAMP-d2 and Anti-cAMP-Eu-Cryptate were diluted respectively with the cAMP lysis buffer at a ratio of 1:4. Each well was added with 12.5 μl of diluted cAMP-d2, followed by addition of 12.5 μl of diluted Anti-cAMP-Eu-Cryptate, and the plate was incubated at room temperature in the dark for 1 hour. The HTRF signal values were read by the PHERAstar multi-function microplate reader.

Assay [3] deals with T3, adenosine A2a receptor (A2aR) (Homo sapiens, UniProt P29274).
T3 construct: expressed in transfected cells; host or cells: CHO-K1
T3 sequence (P29274 whole entry): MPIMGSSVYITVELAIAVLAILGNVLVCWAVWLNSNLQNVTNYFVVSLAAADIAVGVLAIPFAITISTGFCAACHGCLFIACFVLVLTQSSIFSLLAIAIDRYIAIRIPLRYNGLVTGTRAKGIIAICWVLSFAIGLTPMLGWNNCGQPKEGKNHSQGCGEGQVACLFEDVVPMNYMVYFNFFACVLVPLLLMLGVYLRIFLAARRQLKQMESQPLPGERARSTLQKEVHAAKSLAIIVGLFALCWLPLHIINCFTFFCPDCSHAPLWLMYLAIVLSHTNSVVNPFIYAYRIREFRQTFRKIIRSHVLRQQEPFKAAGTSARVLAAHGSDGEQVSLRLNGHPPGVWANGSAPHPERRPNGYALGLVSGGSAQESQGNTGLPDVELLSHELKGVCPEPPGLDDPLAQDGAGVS
Description: Inhibition of the adenosine A2a receptor cAMP signaling pathway in CHO-K1/A2aR cells (HTRF). Conditions: CHO-K1/A2aR cells, cAMP, NECA 20 nM; Table 1.
Text: as §1, §2
2.1 Adenosine A2a receptor
CHO-K1/A2aR cells were cultured in DMEM/F12 medium containing 10% fetal bovine serum and 800 μg/ml bleomycin. The cells were digested with the cell separation buffer during the experiment. The cells were resuspended in the balanced salt buffer containing 20 mM HEPES and 0.1% bovine serum albumin and counted, and the cell density was adjusted to 10^6 cells/ml. In the 384-well plate, each well was added with 5 μl of cell suspension, and 2.5 μl of test compound (4× concentration) formulated with the balanced salt buffer containing 20 mM HEPES, 0.1% bovine serum albumin, 54 μM rolipram and 2.7 U/ml adenosine deaminase, and the plate was incubated at room temperature for 30 minutes. Each well was then added with 2.5 μl of […] (4× concentration) formulated with the balanced salt buffer containing 20 mM HEPES, 0.1% bovine serum albumin, 54 μM rolipram and 2.7 U/ml adenosine deaminase, and the plate was incubated at room temperature for 30 minutes. The final concentrations of the compounds were: 10000, 2000, 400, 80, 16, 3.2, 0.64, 0.128, 0.0256, 0.00512, and 0.001024 nM. The final concentration of […] was 20 nM. Intracellular cAMP concentration was detected with the cAMP dynamic 2 kit. cAMP-d2 and Anti-cAMP-Eu-Cryptate were diluted respectively with the cAMP lysis buffer at a ratio of 1:4. Each well was added with 5 μl of diluted cAMP-d2, followed by addition of 5 μl of diluted Anti-cAMP-Eu-Cryptate, and the plate was incubated at room temperature in the dark for 1 hour. The HTRF signal values were read by the PHERAstar multi-function microplate reader.

As to `Cc1cc(-c2nnc(N)nc2-c2ccccc2)cc2cccnc12` [Example 1, 6-(8-Methylquinolin-6-yl)-5-phenyl-1,2,4-triazin-3-amine], in assay [1], the IC50 was greater than 10000 nM and the “IC50 ratio (A3R/A2aR)” value is listed as >10^4. In assay [2], it took 121 nM to reach half-maximal inhibition (IC50) and the “IC50 ratio (A1R/A2aR)” value was 242. Moreover, in assay [3], the IC50 was 0.5 nM.

As for `Cc1cc(-c2nnc(N)nc2-c2ccco2)cc2cccnc12` [Example 6, 5-(Furan-2-yl)-6-(8-methylquinolin-6-yl)-1,2,4-triazin-3-amine], in assay [3], the IC50 turned out to be 1.3 nM. `Cc1cc(-c2nnc(N)nc2-c2cccs2)cc2cccnc12` [Example 7, 6-(8-Methylquinolin-6-yl)-5-(thiophen-2-yl)-1,2,4-triazin-3-amine] registered an IC50 in assay [3] of 3.1 nM.

In the case of `Cc1cc(-c2nnc(N)nc2-c2ccc(F)cc2)cc2cccnc12` [Example 8, 5-(4-Fluorophenyl)-6-(8-methylquinolin-6-yl)-1,2,4-triazin-3-amine], half-maximal inhibition in assay [3] (IC50) was put at 3.6 nM. The IC50 values of the last two compounds are within 1.5-fold of each other. Still for that read-out and setting: as for `Nc1nnc(-c2ccc3ccccc3c2)c(-c2ccccc2)n1` [Example 13, 6-(Naphthalen-2-yl)-5-phenyl-1,2,4-triazin-3-amine, reference compound], the figure is 158 nM; as for `Nc1nnc(-c2ccc3ncc(F)cc3c2)c(-c2ccccc2)n1` [Example 24, 6-(3-Fluoroquinolin-6-yl)-5-phenyl-1,2,4-triazin-3-amine], 0.9 nM; as for `Nc1nnc(-c2cc(F)c3ncccc3c2)c(-c2cccc(F)c2)n1` [Example 26, 5-(3-Fluorophenyl)-6-(8-fluoroquinolin-6-yl)-1,2,4-triazin-3-amine], 1.8 nM. Still for that read-out and setting: as for `Nc1nnc(-c2ccc3nccc(Cl)c3c2)c(-c2ccc(F)cc2)n1` [Example 27, 6-(4-Chloroquinolin-6-yl)-5-(4-fluorophenyl)-1,2,4-triazin-3-amine], the figure is 2.2 nM; as for `Cc1cnc2ccc(-c3nnc(N)nc3-c3ccccc3)cc2c1` [Example 28, 6-(3-Methylquinolin-6-yl)-5-phenyl-1,2,4-triazin-3-amine], 3 nM; as for `Nc1nnc(-c2ccc3ncncc3c2)c(-c2ccccc2)n1` [Example 29, 5-Phenyl-6-(quinazolin-6-yl)-1,2,4-triazin-3-amine], 3.5 nM. On the same count and under the same terms, as for `Nc1nnc(-c2ccc3ncccc3c2)c(-c2ccc(F)cc2)n1` [Example 30, 5-(4-Fluorophenyl)-6-(quinolin-6-yl)-1,2,4-triazin-3-amine], the figure is 3.7 nM. On to `CCc1ccnc2c(F)cc(-c3nnc(N)nc3-c3ccccc3)cc12` [Example 47, 6-(4-Ethyl-8-fluoroquinolin-6-yl)-5-phenyl-1,2,4-triazin-3-amine], for which, in assay [3], the IC50 amounted to 1.6 nM. For the compound `Cc1cc(-c2nc(N)nnc2-c2ccc3nccc(C)c3c2)ccn1` [Example 48, 5-(2-Methylpyridin-4-yl)-6-(4-methylquinolin-6-yl)-1,2,4-triazin-3-amine], in assay [1], the IC50 is greater than 10000 nM and the “IC50 ratio (A3R/A2aR)” value is listed as >10^3. In addition, in assay [2], inhibition was half-maximal at 3280 nM (IC50) and the “IC50 ratio (A1R/A2aR)” value came out at 1365. Besides, inhibition in assay [3] was half-maximal at 2.4 nM (IC50). In the case of `Nc1nnc(-c2ccc3nccc(C4CC4)c3c2)c(-c2ccc(F)cc2)n1` [Example 49, 6-(4-Cyclopropylquinolin-6-yl)-5-(4-fluorophenyl)-1,2,4-triazin-3-amine], in assay [3], the midpoint of inhibition, the IC50, lay at 2.5 nM. Turning to `Cc1ncnc2c(F)cc(-c3nnc(N)nc3-c3ccc(F)cc3)cc12` [Example 50, 6-(8-Fluoro-4-methylquinazolin-6-yl)-5-(4-fluorophenyl)-1,2,4-triazin-3-amine], the IC50 in assay [1] is greater than 10000 nM; in assay [2] it was 3260 nM; in assay [3], 3.2 nM. Also, in assay [1], the “IC50 ratio (A3R/A2aR)” value is on record as >10^3. Further, the “IC50 ratio (A1R/A2aR)” value in assay [2] is on record as 1018. In turn, `Nc1nnc(-c2ccc3nccc(C(F)F)c3c2)c(-c2ccc(F)cc2)n1` [Example 51, 6-(4-(Difluoromethyl)quinolin-6-yl)-5-(4-fluorophenyl)-1,2,4-triazin-3-amine] yielded an IC50 in assay [3] of 3.5 nM.
